{"source": "the supplement of paper PMC10307832", "assay_in_all_cases": "relative viability (nuclei count vs DMSO), 5 days (fraction); higher = more cells survive", "key": {"Midostaurin + Olaparib": {"compound": "CO[C@@H]1[C@H](N(C)C(=O)c2ccccc2)C[C@H]2O[C@]1(C)n1c3ccccc3c3c4c(c5c6ccccc6n2c5c31)C(=O)NC4 [Midostaurin] + O=C(c1cc(Cc2n[nH]c(=O)c3ccccc23)ccc1F)N1CCN(C(=O)C2CC2)CC1 [Olaparib] (partner 8 µM)", "procedure,_shortened": "(§1)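 Relative viability was taken as the ratio of nuclei in treated wells to nuclei in vehicle wells. Lung cancer cell lines in 1536-well plates received compounds by pin tool one day after seeding, either one drug alone or a fixed anchor-drug dose plus five library-drug doses (not always all listed) in √10 steps. Nuclei were counted on 4× images after 5 days of treatment, and values are medians of duplicate plates.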"}, "[1]": {"compound": "COc1cc(-c2nn([C@H]3CC[C@H](N4CCN(C(C)=O)CC4)CC3)c3ncnc(N)c23)ccc1NC(=O)c1cc2ccccc2n1C + C[C@@H](Oc1cc(-c2cnn(C3CCNCC3)c2)cnc1N)c1c(Cl)ccc(F)c1Cl [Crizotinib] (partner 1 µM)", "procedure,_shortened": "as §1"}, "[2]": {"compound": "COc1cc(-c2nn([C@H]3CC[C@H](N4CCN(C(C)=O)CC4)CC3)c3ncnc(N)c23)ccc1NC(=O)c1cc2ccccc2n1C + CS(=O)(=O)N1CCN(Cc2cc3nc(-c4cccc5[nH]ncc45)nc(N4CCOCC4)c3s2)CC1 [Pictilisib] (partner 1 µM)", "procedure,_shortened": "as §1"}, "[3]": {"compound": "COc1cc(-c2nn([C@H]3CC[C@H](N4CCN(C(C)=O)CC4)CC3)c3ncnc(N)c23)ccc1NC(=O)c1cc2ccccc2n1C + CC(=O)Nc1cccc(-n2c(=O)n(C3CC3)c(=O)c3c(Nc4ccc(I)cc4F)n(C)c(=O)c(C)c32)c1 [Trametinib] (partner 0.02 µM)", "procedure,_shortened": "as §1"}, "Midostaurin + Pictilisib": {"compound": "CO[C@@H]1[C@H](N(C)C(=O)c2ccccc2)C[C@H]2O[C@]1(C)n1c3ccccc3c3c4c(c5c6ccccc6n2c5c31)C(=O)NC4 [Midostaurin] + CS(=O)(=O)N1CCN(Cc2cc3nc(-c4cccc5[nH]ncc45)nc(N4CCOCC4)c3s2)CC1 [Pictilisib] (partner 1 µM)", "procedure,_shortened": "as §1"}}}
{"cell line": "UMC-11", "values": [{"measurement": "relative viability", "setting": "Midostaurin + Olaparib; first compound 0.01 µM", "result": 0.354}, {"measurement": "relative viability", "setting": "Midostaurin + Olaparib; first compound 0.03162 µM", "result": 0.387}, {"measurement": "relative viability", "setting": "Midostaurin + Olaparib; first compound 0.1 µM", "result": 0.303}, {"measurement": "relative viability", "setting": "Midostaurin + Olaparib; first compound 0.3162 µM", "result": 0.207}, {"measurement": "relative viability", "setting": "[1]; first compound 0.0128 µM", "result": 0.638}, {"measurement": "relative viability", "setting": "[1]; first compound 0.04048 µM", "result": 0.627}, {"measurement": "relative viability", "setting": "[1]; first compound 0.128 µM", "result": 0.64}, {"measurement": "relative viability", "setting": "[1]; first compound 1.28 µM", "result": 0.479}, {"measurement": "relative viability", "setting": "[2]; first compound 0.0128 µM", "result": 0.89}, {"measurement": "relative viability", "setting": "[2]; first compound 0.04048 µM", "result": 0.788}, {"measurement": "relative viability", "setting": "[2]; first compound 0.128 µM", "result": 0.767}, {"measurement": "relative viability", "setting": "[2]; first compound 1.28 µM", "result": 0.71}, {"measurement": "relative viability", "setting": "[3]; first compound 0.0128 µM", "result": 0.654}, {"measurement": "relative viability", "setting": "[3]; first compound 0.04048 µM", "result": 0.689}, {"measurement": "relative viability", "setting": "[3]; first compound 0.128 µM", "result": 0.67}, {"measurement": "relative viability", "setting": "[3]; first compound 1.28 µM", "result": 0.661}, {"measurement": "relative viability", "setting": "Midostaurin + Pictilisib; first compound 0.01 µM", "result": 0.859}, {"measurement": "relative viability", "setting": "Midostaurin + Pictilisib; first compound 0.03162 µM", "result": 0.602}, {"measurement": "relative viability", "setting": "Midostaurin + Pictilisib; first compound 0.1 µM", "result": 0.871}, {"measurement": "relative viability", "setting": "Midostaurin + Pictilisib; first compound 0.3162 µM", "result": 0.663}]}
